Assay type in all cases: functional
A short description of assay [1]: Antioxidant activity assessed as DPPH radical scavenging activity by DPPH assay. On the technique in general: The DPPH test is a chemical assay of radical scavenging.
The nature of assay [2]: Antioxidant activity assessed as trolox equivalent of DPPH radical scavenging activity by DPPH assay relative to trolox.
In assay [3] the test system is Escherichia coli. Kind of assay: Bactericidal activity against Escherichia coli assessed as decrease in cell survival.
For assay [4], the system named is Bacillus subtilis. Kind of assay: Bactericidal activity against Bacillus subtilis assessed as decrease in cell survival.
For assay [5], the system named is Escherichia coli. Kind of assay: Antibacterial activity against Escherichia coli assessed as inhibition of bacterial growth.
The test system of assay [6] is Bacillus subtilis. Kind of assay: Antibacterial activity against Bacillus subtilis assessed as inhibition of bacterial growth.

pIC50: −log10 of the molar value. Converted amounts (≈) assume the structure as drawn.

These results are taken from ChEMBL document CHEMBL5104147, “Biocatalytic synthesis and evaluation of antioxidant and antibacterial activities of hydroxyequols” (Bioorg Med Chem Lett, 2022).

For the compound `Oc1ccc2c(c1)OC[C@H](c1ccc(O)c(O)c1)C2`, in assay [1], the pIC50 was 3.60. Moreover, the Ratio IC50 in assay [2] amounted to 1.02. Further, the MBC in the assay with Escherichia coli [3] and in the assay with Bacillus subtilis [4] was 512 mg/L (≈ 1980 µM) throughout. Also, the results for the MIC with Escherichia coli [5] and in the assay on Bacillus subtilis [6] were 512 mg/L (≈ 1980 µM) and 256 mg/L (≈ 991 µM), respectively.

`Cc1c(C)c2c(c(C)c1O)CCC(C)(C(=O)O)O2` (configuration not stated) [TROLOX]: in assay [1], the pIC50 was 3.60.

In the case of `Oc1ccc([C@H]2COc3cc(O)ccc3C2)cc1` [AUS-131], the pIC50 in assay [1] was 1.28. The Ratio IC50 in assay [2] is 4.99 10^-3No_unit. Besides, the MBC is > 1020 mg/L in the assay with Escherichia coli [3] and 256 mg/L (≈ 1060 µM) in the assay with Bacillus subtilis [4]. Besides, the MIC in the assay with Escherichia coli [5] was found to be 256 mg/L (≈ 1060 µM); in the assay on Bacillus subtilis [6], 64 mg/L (≈ 264 µM).

Turning to `Oc1ccc([C@H]2COc3cc(O)c(O)cc3C2)cc1O`, the pIC50 in assay [1] was 3.95. The Ratio IC50 in assay [2] worked out at 2.28. In addition, the minimal bactericidal concentration (MBC) in the assay on Escherichia coli [3] is > 1020 mg/L; in the assay on Bacillus subtilis [4], 256 mg/L (≈ 933 µM). Moreover, the MIC in the assay with Escherichia coli [5] was found to be 128 mg/L (≈ 467 µM); with Bacillus subtilis [6], 256 mg/L (≈ 933 µM).

Take `O=c1c(-c2ccc(O)cc2)coc2cc(O)ccc12` [DAIDZEIN]: the MIC in the assay with Escherichia coli [5] and in the assay with Bacillus subtilis [6] was > 1020 mg/L each time.

Consider `Oc1ccc([C@H]2COc3cc(O)c(O)cc3C2)cc1`, for which, in assay [1], the pIC50 was 3.63. Also, in assay [2], the Ratio IC50 was found to be 1.08. Further, the MBC was 64 mg/L (≈ 248 µM) in the assay with Escherichia coli [3] and 128 mg/L (≈ 496 µM) with Bacillus subtilis [4]. Moreover, the MIC in the assay on Escherichia coli [5] turned out to be 64 mg/L (≈ 248 µM); in the assay on Bacillus subtilis [6], 128 mg/L (≈ 496 µM).

What is called pIC50 is the negative decadic logarithm of the IC50, by convention in mol/L. In general, MBC refers to the lowest tested concentration that kills the bacteria rather than only halting them. The term MIC denotes the smallest concentration in the dilution series that meets the test's criterion for growth inhibition.
